Assay results published in US20030100550A1, “Carboxamide diazepin derivatives, preparation method, use as medicines, pharmaceutical compositions and use thereof” (priority 2002, published 2003).

Experiments:
Cathepsin B = molecular target: T1, Cathepsin B (Homo sapiens, UniProt P07858); assay: Study of Cathepsin B inhibition (fluorescence, Z-arg-arg-AMC); type: biochemical; details: for IC50: substrate Z-arg-arg-AMC 20 μM, enzyme 16 ng/ml, 1 hour at ambient temperature
T1 construct: purchased Calbiochem
Protocol: (§1) The products to be tested (10 mM) are diluted to […] in DMSO and distributed into Nunc polystyrene 96 well plates at a rate of 2 μl per well. Column 12 of the plate is reserved for the controls and therefore receives […] of DMSO (without products) per well. The plates are stored at −80° C. and thawed on the day of the experiment.
(§2) The products are diluted to 50 μM by adding 38 μl of reaction buffer: sodium acetate 100 mM, EDTA 5 mM, DTT […] pH 5.5. The addition as well as all the operations by pipette are carried out with a CybiWell 96 tip pipette. After mixing the solutions, each product is transferred into 2 wells (duplicates) of a Greiner black 384 well plate at a rate of 10 μl per well. Two 96-well plates can therefore be tested in a 384-well plate.
(§3) A solution of substrate at 50 μM, Z-Val-arg-AMC (Calbiochem), is prepared in the reaction buffer. The substrate, is then distributed into all the wells of the 384-well plate (20 μl per well).
(§4) A solution of Cathepsin K at 12.5 ng/ml is prepared in the reaction buffer and distributed into all the wells of the 384-well plate (20 μl per well) except for the 16 wells serving as 100% inhibition controls (column 23 and 24, lines I to P) which receive 20 μl of enzyme-free buffer.
(§5) The plates are then incubated 2H at ambient temperature, then read on Fluoroskan (Labsystems): excitation 390 nm; emission 460 nm
(§6) The final concentrations of each of the reagents are: products 10 μM, substrate 20 μM, enzyme 5 ng/ml.
(§7) The % inhibition for each of the products is calculated by using points at 0 and 100% inhibition of each plate as references. The products presenting a significant inhibition are then retested on a range of concentrations from 50 to 0.5 μM to determine an IC50.
Study of Cathepsin B Inhibition:
Protocol identical to that of Cathepsin K except for:
Z-arg-arg-AMC substrate (Calbiochem), solution at 50 μM, final concentration 20 μM
Cathepsin B (Calbiochem), solution at 40 ng/ml, final concentration 16 ng/ml
Incubation for 1 hour at ambient temperature

Cathepsin K = molecular target: T2, Cathepsin K (Homo sapiens, UniProt P43235); assay: Study of Cathepsin K inhibition (fluorescence, Z-Val-arg-AMC); type: biochemical; details: substrate Z-Val-arg-AMC 20 μM, enzyme 5 ng/ml, 2H at ambient temperature; read-out: Cathepsin K IC50
T2 sequence (P43235 115-329): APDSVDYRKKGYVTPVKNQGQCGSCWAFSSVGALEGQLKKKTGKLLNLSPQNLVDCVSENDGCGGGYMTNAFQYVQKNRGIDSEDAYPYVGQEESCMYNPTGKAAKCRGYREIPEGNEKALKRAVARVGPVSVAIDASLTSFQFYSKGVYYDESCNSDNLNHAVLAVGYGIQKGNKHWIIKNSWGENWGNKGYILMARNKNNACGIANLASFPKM
Protocol: Study of Cathepsin K Inhibition:
as §1, §2, §3, §4, §5, §6, §7

| Structure (SMILES) | IC50 (Cathepsin B) | IC50 (Cathepsin K) | Cathepsin B, percentage in parentheses beside IC50 value (% inhibition) (Cathepsin B; printed beside 20 μM, meaning not explained) |
| --- | --- | --- | --- |
| C=CCOC(=O)CC[C@H](NC(=O)[C@@H]1CCCN2C(=O)CC[C@H](NC(=O)Nc3ccc(Oc4ccccc4)cc3)C(=O)N12)C(=O)C=[N+]=[N-] [Example 43, (2-propenyl)(4S)6-diazo-4-[[[(1S,9S)-9-[[[(4-phenoxyphenyl)amino]carbonyl]amino]-octahydro-6,10-dioxo-6H-pyridazino[1,2-a][1,2]diazepine-1-yl]carbonyl]amino]-5-oxo-hexanoate] | 15 µM | 1.5 µM |  |
| C=CCOC(=O)CC[C@H](NC(=O)[C@@H]1CCCN2C(=O)CC[C@H](NS(=O)(=O)c3ccc(-c4ccon4)s3)C(=O)N12)C(=O)C=[N+]=[N-] [Example 48, (2-propenyl)(4S)6-diazo-4-[[[(1S,9S)-9-[[[5-(isoxazol-3-yl)-2-thienyl]sulphonyl]amino]-octahydro-6,10-dioxo-6H-pyridazino[1,2-a][1,2]diazepine-1-yl]carbonyl]amino]-5-oxo-hexanoate] | 7 µM | 3 µM |  |
| C=CCOC(=O)CC[C@H](NC(=O)[C@@H]1CCCN2C(=O)CC[C@H](NC(=O)c3ccco3)C(=O)N12)C(=O)COC(=O)c1c(Cl)cccc1Cl [Example 91, (2-propenyl)(4S)6-[(2,6-dichlorobenzoyl)oxy]-4-[[[(1S,9S)-9-[[(2-furanyl)carbonyl]amino]-octahydro-6,10-dioxo-6H-pyridazino[1,2-a][1,2]diazepine-1-yl]carbonyl]amino]-5-oxo-hexanoate] | < 0.2 µM | 6 µM |  |
| C=CCOC(=O)CC[C@H](NC(=O)[C@@H]1CCCN2C(=O)CC[C@H](NS(=O)(=O)c3ccc(C(F)(F)F)cc3)C(=O)N12)C(=O)COC(=O)c1c(Cl)cccc1Cl [Example 101, (2-propenyl)(4S)6-[(2,6-dichlorobenzoyl)oxy]-4-[[[(1S,9S)-9-[[[4-(trifluoromethyl)phenyl]sulphonyl]amino]-octahydro-6,10-dioxo-6H-pyridazino[1,2-a][1,2]diazepine-1-yl]carbonyl]amino]-5-oxo-hexanoate] | 6 µM |  |  |
| COc1cccc(C(=O)N[C@H]2CCC(=O)N3CCC[C@@H](C(=O)N[C@@H](Cc4ccccc4)C(=O)COC(=O)c4c(Cl)cccc4Cl)N3C2=O)c1 [Example 185, 9-[(9S)-(3-methoxybenzoyl)amino]-N-((2S)-4-[(2,6-dichlorobenzoyl)oxy]-1-phenyl-3-oxo-2-butyl]-octahydro-6,10-dioxo-6H-(1S)-pyridazino[1,2-a][1,2]diazepine-1-carboxamide] | 7 µM |  |  |
| O=C(N[C@H]1CCC(=O)N2CCC[C@@H](C(=O)N[C@@H](Cc3ccccc3)C(=O)COC(=O)c3c(Cl)cccc3Cl)N2C1=O)c1ccco1 [Example 192, 9-[(9S)-[(2-furanyl)carbonyl]amino]-N-[(2S)-4-[(2,6-dichlorobenzoyl)oxy]-1-phenyl-3-oxo-2-butyl]-octahydro-6,10-dioxo-6H-(1S)-pyridazino[1,2-a][1,2]diazepine-1-carboxamide] | 18 µM | 20 µM |  |
| O=C(NCCc1cccs1)N[C@H]1CCC(=O)N2CCC[C@@H](C(=O)N[C@@H](Cc3ccccc3)C(=O)CN3CCN(CC(=O)N4CCCC4)CC3)N2C1=O [Example 229] | 18 µM | 20 µM |  |
| CS(=O)(=O)N[C@H]1CCC(=O)N2CCC[C@@H](C(=O)N[C@@H](Cc3ccccc3)C(=O)COC(=O)c3c(Cl)cccc3Cl)N2C1=O [Example 234, 9-[(9S)-(methylsulphonyl)amino]-N-[(2S)-1-phenyl-4-[(-2,6-dichlorobenzoyl)oxy]-3-oxo-2-butyl]-octahydro-6,10-dioxo-6H-(1S)-pyridazino[1,2-a][1,2]diazepine-1-carboxamide] | 18 µM | 20 µM |  |
| CC(C)C[C@H](NC(=O)[C@@H]1CCCN2C(=O)CC[C@H](NS(C)(=O)=O)C(=O)N12)C(=O)COC(=O)c1c(Cl)cccc1Cl [Example 304, 9-[(9S)-(methylsulphonyl)amino]-N-[(3S)-5-methyl-1-[(2,6-dichlorobenzoyl)oxy]-2-oxo-3-hexyl]-octahydro-6,10-dioxo-6H-(1S)-pyridazino[1,2-a][1,2]diazepine-1-carboxamide] | 1.5 µM | 12 µM |  |
| CC(C)C[C@H](NC(=O)[C@@H]1CCCN2C(=O)CC[C@H](NS(=O)(=O)c3ccc(C(F)(F)F)cc3)C(=O)N12)C(=O)COC(=O)c1c(Cl)cccc1Cl [Example 313, 9-[(9S)-[[[4-(trifluoromethyl)phenyl]sulphonyl]amino]]-N-[(3S)-5-methyl-1-[(2,6-dichlorobenzoyl)oxy]-2-oxo-3-hexyl]-octahydro-6,10-dioxo-6H-(1S)-pyridazino[1,2-a][1,2]diazepine-1-carboxamide] | 5 µM |  |  |
| CC(C)C[C@H](NC(=O)[C@@H]1CCCN2C(=O)CC[C@H](NS(=O)(=O)c3ccc4ccccc4c3)C(=O)N12)C(=O)COC(=O)c1c(Cl)cccc1Cl [Example 322, 9-[(9S)-[(2-naphthalenyl)sulphonyl]amino]-N-[(3S)-5-methyl-1-[(2,6-dichlorobenzoyl)oxy]-2-oxo-3-hexyl]-octahydro-6,10-dioxo-6H-(1S)-pyridazino[1,2-a][1,2]diazepine-1-carboxamide] | 6 µM | 20 µM |  |
| CC(C)C[C@H](NC(=O)[C@@H]1CCCN2C(=O)CC[C@H](NS(=O)(=O)c3ccc(C(F)(F)F)cc3)C(=O)N12)C(=O)C=[N+]=[N-] [Example 347, 9-[(9S)-[[4-(trifluoromethyl)phenyl]sulphonyl]amino]-N-((3S)-1-diazo-5-methyl-2-oxo-3-hexyl)-octahydro-6,10-dioxo-6H-(1S)-pyridazino[1,2-a][1,2]diazepine-1-carboxamide] |  | 12 µM | 25% |
| CC(C)C[C@H](NC(=O)[C@@H]1CCCN2C(=O)CC[C@H](NS(=O)(=O)c3ccc4ccccc4c3)C(=O)N12)C(=O)C=[N+]=[N-] [Example 348, 9-[(9S)-[(2-naphthalenyl)sulphonyl]amino]-N-((3S)-1-diazo-5-methyl-2-oxo-3-hexyl)-octahydro-6,10-dioxo-6H-(1S)-pyridazino[1,2-a][1,2]diazepine-1-carboxamide] |  | 10 µM |  |
| C[C@H](NC(=O)[C@@H]1CCCN2C(=O)CC[C@H](NC(=O)NC3CCCCC3)C(=O)N12)C(=O)COC(=O)c1c(Cl)cccc1Cl [Example 433, 9-[(9S)-[(cyclohexylamino)carbonyl]amino]-N-[(2S)-4-[(2,6-dichlorobenzoyl)oxy]-3-oxo-2-butyl]-octahydro-6,10-dioxo-6H-(1S)-pyridazino[1,2-a][1,2]diazepine-1-carboxamide] | 4 µM | 20 µM |  |
| C[C@H](NC(=O)[C@@H]1CCCN2C(=O)CC[C@H](NC(=O)c3ccco3)C(=O)N12)C(=O)COC(=O)c1c(Cl)cccc1Cl [Example 443, 9-[(9S)-[(2-furanyl)carbonyl]amino]-N-[(2S)-4-[(2,6-dichlorobenzoyl)oxy]-3-oxo-2-butyl]-octahydro-6,10-dioxo-6H-(1S)-pyridazino[1,2-a][1,2]diazepine-1-carboxamide] | 5 µM |  |  |
| C[C@H](NC(=O)[C@@H]1CCCN2C(=O)CC[C@H](NC(=O)Nc3ccc(Oc4ccccc4)cc3)C(=O)N12)C(=O)COC(=O)c1c(Cl)cccc1Cl [Example 453, 9-[(9S)-[[(4-phenoxyphenyl)amino]carbonyl]amino]-N-[(2S)-4-[(2,6-dichlorobenzoyl)oxy]-3-oxo-2-butyl]-octahydro-6,10-dioxo-6H-(1S)-pyridazino[1,2-a][1,2]diazepine-1-carboxamide] | 9 µM | 20 µM |  |
| COc1cccc(C(=O)N[C@H]2CCC(=O)N3CCC[C@@H](C(=O)N[C@@H](C)C(=O)COC(=O)c4c(Cl)cccc4Cl)N3C2=O)c1 [Example 463, 9-[(9S)-(3-methoxybenzoyl)amino]-N-[(2S)-4-[(2,6-dichlorobenzoyl)oxy]-3-oxo-2-butyl]-octahydro-6,10-dioxo-6H-(1S)-pyridazino[1,2-a][1,2]diazepine-1-carboxamide] | 1.5 µM |  |  |
| C[C@H](NC(=O)[C@@H]1CCCN2C(=O)CC[C@H](NS(=O)(=O)c3ccc(C(F)(F)F)cc3)C(=O)N12)C(=O)COC(=O)c1c(Cl)cccc1Cl [Example 481, 9-[(9S)-[[4-(trifluoromethyl)phenyl]sulphonyl]amino]-N-[(2S)-4-[(2,6-dichlorobenzoyl)oxy]-3-oxo-2-butyl]-octahydro-6,10-dioxo-6H-(1S)-pyridazino[1,2-a][1,2]diazepine-1-carboxamide] | 6 µM |  |  |
